Laboratory results: patent US8017557B2, “Benzodioxole derivatives as modulators of proteolytic activity in plants” (Endura S.p.A., priority 2002, dated 2011)

Legend:
[1] = system: peptidase activity in cotton plants; assay: Photometric assay of peptidase activity with DL-BAPA as substrate in cotton plants; format: in vivo, cotton (cv. Sicala V2i); details: for Peptidase activity, PBO treated cv. V2i Bt: DL-BAPA substrate
Experimental: The photometric assay was carried out following the DL-BAPA hydrolysis at 410 nm. One peptidase unit (U) was defined as the amount of the enzyme, which produces one unit of absorbance variation at 410 nm/minute at pH 8.2 and 30° C. For each extract, the amount of soluble proteins in mg was determined by the Biuret method and the enzymatic activity was then expressed as specific activity i.e. Units/mg soluble proteins.
Each analysis was performed in duplicate or in triplicate and the standard deviation for each point is also indicated. Abscissa: time (days); ordinate: trypsin units/mg soluble protein.
(§1) The samples were collected at different development stages of plants, which were: […], 60 and 85 days after sowing. These samples were also analysed for determining the Bt content (as described in example 4). To this aim, the enzymatic activity was tested on crude freeze dried leaf extracts with two different assays: the Radial Diffusion Assay (RDA), in which a protein, such as the bovine gelatine, was used as a substrate to test the endopeptidase activity, and a photometric assay described in the next example, in which DL-BAPA was used as a substrate, to determine a general peptidase activity.
(§2) A powder aliquot, which represents each step of plant growth, of the treated and controls samples was extracted in two steps. The powder sample was extracted with buffer 0.1 M Tris-HCl pH 7.7 (1:20 w/v) using an Ultraturrax blender at 24,000×RPM for 2 min in a ice bath to avoid overheating. […] The clear supernatant was collected and filtrated with Whatman paper no 4. The pellet was further extracted with the same procedure, with the exception that in this case the extraction ratio was 1:10 (w/v). Finally, the supernatants of the two extractions processes were joined and then concentrated 4-5 times by centrifugation at 3,000×g at 15° C. for 2 hours, using suitable concentrators (Amicon Inc. Beverly, Mass.—USA), fitted with a membrane of 10 κD cut off.
(§3) For each extract, the amount of soluble proteins was determined by the Biuret method and the enzymatic activity was then expressed as specific activity i.e. Units/mg soluble proteins.
The photometric assay was carried out as described in Erlanger, B. F. et al. Arch. Biochem., 1961, 95: 271-278. In the assay is measured the absorbance variation due to DL-BAPA hydrolysis at 410 nm. The assay was performed mixing directly in the cuvette 20 μl of cotton crude extract with 980 μl of DL-BAPA in buffer 0.1 M Tris-HCl pH 8.2. One peptidase unit was defined as the amount of the enzyme which produces one unit of absorbance variation (410 nm) per minute at pH 8.2 and 30° C.
Each series of analysis was performed in duplicate or triplicate. […] In this figure is shown a maximum of peptidase activity around 60 days of development. […] A statistically significant inhibition is observed during the most part of the plant growing cycle. Finally, in table 7 is shown the specific activities of peptidase of treated and untreated Sicala V2i cotton samples. In this table it is also reported the activity differences in percentage between the treated and untreated samples.

bromelain = bromelain (Ananas comosus, UniProt P14518); assay: biochemical
Chain of bromelain (P14518 whole entry, the tested form may be a part): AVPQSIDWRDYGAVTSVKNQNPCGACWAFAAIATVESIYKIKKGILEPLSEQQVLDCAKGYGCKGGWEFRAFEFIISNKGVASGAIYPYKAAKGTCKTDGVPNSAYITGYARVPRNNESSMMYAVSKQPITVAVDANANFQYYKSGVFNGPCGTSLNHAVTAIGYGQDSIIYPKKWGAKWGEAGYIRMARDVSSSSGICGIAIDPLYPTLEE
Experimental: Reverse micelles assay of ISO-AOT 50 mM (AOT: twin aerosol (2-ethylhexylsodiumsulfosuccinate in isooctane (ISO)); Wo (H2O/AOT)=28
The assays were carried out in the reverse-micelles assay dispersed in organic solvent, described by Walde et al. in Eur. J. Biochem., 1988, 173:401-409, and already reported in the literature in kinetic studies of the inhibition of trypsin with natural and synthetic inhibitors. […]
The enzyme assay on reverse-micelle has been already described in the literature for the enzyme trypsin and was adapted to different enzymes. […] To this solution was added an appropriate volume of substrate CBZ (dissolved in acetonitrile/H2O, 80:20 (v/v) at a concentration of 15 mM) and following further agitation (the solution returned to being transparent), the change in absorbance was measured (Dabs) at 340 nm with a Cary 219 spectrophotometer.
The experimental data obtained are represented graphically in the form of Dixon-plot (described for example in: “Quantitative Problems in Biochemistry”, E A. Dawes, 5th ed. 1972 Baltimore, The Williams and Wilkins Company), in the FIGS. 1, 2 and 3.

[2] = system: endopeptidase activity in cotton leaves; assay: Radial Diffusion Assay (RDA) of endopeptidase activity in cotton plants; format: in vivo, cotton (cv. Sicala V2i); details: for Endopeptidase activity, cv. V2i Bt PBO: U = trypsin equivalents
Experimental: The […] of the clear zone produced by the plant extracts was compared to a standard curve obtained by a serial dilution of trypsin. A standard solution of trypsin was used to plot a standard curve for each sample plate, thus the endopeptidase activity was expressed as units of trypsin equivalents. For each extract, the amount of soluble proteins in mg was determined by the Biuret method and the enzymatic activity was then expressed as specific activity i.e. Units/mg soluble proteins. Abscissa: time (days); ordinate: trypsin units/mg soluble protein.
as §1, §2, §3
RDA was performed as described in Santarius, K. and Ryan, C., Anal. Biochem., 1977, 77: 1-9 in Petri dishes containing bovine gelatine as substrate, dispersed in agar gel. Each dish contained 5 wells of which 4 were filled with suitable aliquots of concentrated cotton extracts, whereas one was filled with a bovine β-trypsin as standard solution (0.2 U/ml). The dishes were covered and sealed with a plastic film to avoid evaporation and then incubated at 37° C. for 16 hours.
The enzymatic activity in the protein-agar gel produced a clear radial diffusion zone around each circular wells, due to the bovine gelatine proteolysis against an opaque background.
The trypsin equivalents were calculated by measuring the radii of the clear zones produced by the plant extracts and compared to a standard curve obtained by a serial dilution of trypsin. Each dish contained a standard solution of trypsin that was used to plot a standard curve for each plate, thus the endopeptidase activity was expressed as units of trypsin equivalents.
Each analysis was performed in quadruplicate. […] In table 6 are shown the differences between treated and untreated cotton samples as percentages.

CCCCOCCOCCOCc1cc2c(cc1CCC)OCO2 [PBO, 5-[[2-(2-Butoxyethoxy)ethoxy]methyl]-6-propyl-1,3-benzodioxole]
Difference % Treated minus untreated (peptidase, DL-BAPA) ([1]; 4 days after sowing): 4.99% | Peptidase activity, PBO treated cv. V2i Bt ([1]; 4 days after sowing): 5.21 U/mg of soluble protein × 10^−2 | Difference % Treated minus untreated (peptidase, DL-BAPA) ([1]; 35 days after sowing): −23.54% | Peptidase activity, PBO treated cv. V2i Bt ([1]; 35 days after sowing): 9.43 U/mg of soluble protein × 10^−2 | Difference % Treated minus untreated (peptidase, DL-BAPA) ([1]; 60 days after sowing): −25.55% | Peptidase activity, PBO treated cv. V2i Bt ([1]; 60 days after sowing): 13.62 U/mg of soluble protein × 10^−2 | Difference % Treated minus untreated (peptidase, DL-BAPA) ([1]; 85 days after sowing): 18.68% | Peptidase activity, PBO treated cv. V2i Bt ([1]; 85 days after sowing): 12.42 U/mg of soluble protein × 10^−2 | IC50 (bromelain): 400 µM | Ki (bromelain): 100 µM | Difference % Treated minus untreated (endopeptidase, RDA) ([2]; 4 days after sowing): 9.15% | Endopeptidase activity, cv. V2i Bt PBO ([2]; 4 days after sowing): 5.90 U/mg protein | Difference % Treated minus untreated (endopeptidase, RDA) ([2]; 35 days after sowing): −5.35% | Endopeptidase activity, cv. V2i Bt PBO ([2]; 35 days after sowing): 8.04 U/mg protein | Difference % Treated minus untreated (endopeptidase, RDA) ([2]; 60 days after sowing): −39.31% | Endopeptidase activity, cv. V2i Bt PBO ([2]; 60 days after sowing): 4.07 U/mg protein | Difference % Treated minus untreated (endopeptidase, RDA) ([2]; 85 days after sowing): −16.42% | Endopeptidase activity, cv. V2i Bt PBO ([2]; 85 days after sowing): 4.14 U/mg protein
